Assays:
Experiment in all cases: relative viability (nuclei count vs DMSO), 5 days (fraction); higher = more cells survive
Tanzisertib + Pemetrexed = compound: O[C@H]1CC[C@H](Nc2ncc3nc(Nc4c(F)cc(F)cc4F)n([C@H]4CCOC4)c3n2)CC1 [Tanzisertib] + Nc1nc2[nH]cc(CCc3ccc(C(=O)N[C@@H](CCC(=O)O)C(=O)O)cc3)c2c(=O)[nH]1 [Pemetrexed] (partner 0.2 µM)
In short: (§1)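 Dosing by pin tool came one day after lung cancer cell lines were seeded in 1536-well plates, using either one drug or a fixed anchor-drug dose plus five library-drug doses (not always all listed) in √10 steps. After 5 days, nuclei were counted on 4× images. Relative viability is treated-well nuclei count divided by vehicle-well nuclei count, and values are medians of duplicate plates.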

[1] = compound: C[C@@H](N)c1ccc(C(=O)Nc2ccnc3[nH]ccc23)cc1 + C[C@]1(O)C[C@@H](c2nc(-c3ccc4ccc(-c5ccccc5)nc4c3)c3c(N)nccn32)C1 [Linsitinib] (partner 1 µM)
In short: as §1

Tanzisertib + OSI-027 = compound: O[C@H]1CC[C@H](Nc2ncc3nc(Nc4c(F)cc(F)cc4F)n([C@H]4CCOC4)c3n2)CC1 [Tanzisertib] + COc1cccc2cc(-c3nc([C@H]4CC[C@H](C(=O)O)CC4)n4ncnc(N)c34)[nH]c12 [OSI-027] (partner 0.5 µM)
In short: as §1

Tanzisertib + AZD7762 = compound: O[C@H]1CC[C@H](Nc2ncc3nc(Nc4c(F)cc(F)cc4F)n([C@H]4CCOC4)c3n2)CC1 [Tanzisertib] + NC(=O)Nc1cc(-c2cccc(F)c2)sc1C(=O)N[C@H]1CCCNC1 [AZD7762] (partner 0.2 µM)
In short: as §1

Cell Line | relative viability (Tanzisertib + Pemetrexed; first compound 0.08 µM) | relative viability (Tanzisertib + Pemetrexed; first compound 0.253 µM) | relative viability (Tanzisertib + Pemetrexed; first compound 0.8 µM) | relative viability (Tanzisertib + Pemetrexed; first compound 2.53 µM) | relative viability (Tanzisertib + Pemetrexed; first compound 8 µM) | relative viability ([1]; first compound 0.04 µM) | relative viability ([1]; first compound 0.1265 µM) | relative viability ([1]; first compound 0.4 µM) | relative viability ([1]; first compound 1.265 µM) | relative viability ([1]; first compound 4 µM) | relative viability (Tanzisertib + OSI-027; first compound 0.08 µM) | relative viability (Tanzisertib + OSI-027; first compound 0.253 µM) | relative viability (Tanzisertib + OSI-027; first compound 0.8 µM) | relative viability (Tanzisertib + OSI-027; first compound 2.53 µM) | relative viability (Tanzisertib + OSI-027; first compound 8 µM) | relative viability (Tanzisertib + AZD7762; first compound 0.08 µM) | relative viability (Tanzisertib + AZD7762; first compound 0.253 µM) | relative viability (Tanzisertib + AZD7762; first compound 0.8 µM) | relative viability (Tanzisertib + AZD7762; first compound 2.53 µM) | relative viability (Tanzisertib + AZD7762; first compound 8 µM)
201T | 0.321 | 0.322 | 0.325 | 0.314 | 0.298 | 1.14 | 1.02 | 1.07 | 1.11 | 1.16 | 0.632 | 0.854 | 0.673 | 0.713 | 0.501 | 0.659 | 0.528 | 0.578 | 0.555 | 0.524
NCI-H1395 | 0.868 | 0.88 | 0.971 | 0.939 | 0.788 | 1.05 | 1.14 | 1.24 |  | 0.878 | 0.697 | 0.714 | 0.622 | 0.692 | 0.518 | 0.439 | 0.399 | 0.382 | 0.394 | 0.425
LU99A | 0.167 | 0.191 | 0.172 | 0.159 | 0.19 | 0.607 | 0.569 | 0.586 | 0.617 | 0.509 | 0.305 | 0.316 | 0.296 | 0.29 | 0.302 | 0.299 | 0.42 | 0.431 | 0.322 | 0.407
NCI-H1437 | 0.321 | 0.327 | 0.322 | 0.315 | 0.263 | 1.14 | 1.04 | 1.07 | 1.14 | 0.897 | 0.85 | 0.822 | 0.943 | 0.902 | 0.908 | 1.15 | 1.15 | 1.12 | 1.12 | 1.12
EKVX | 0.467 | 0.341 | 0.41 | 0.34 | 0.337 | 1.12 | 1.13 | 1.2 | 1.19 | 1.01 | 0.872 | 0.749 | 0.613 | 0.612 | 0.598 | 0.68 | 0.795 | 0.612 | 0.65 | 0.535
LCLC-97TM1 | 0.172 | 0.164 | 0.146 | 0.169 | 0.173 | 0.192 | 0.2 | 0.202 | 0.29 | 0.349 | 0.541 | 0.435 | 0.495 | 0.368 | 0.517 | 0.302 | 0.334 | 0.207 | 0.264 | 0.151
NCI-H1793 | 1.07 | 0.914 | 0.976 | 0.766 | 0.828 | 1.02 | 0.878 | 0.83 |  | 0.787 | 0.27 | 0.262 | 0.285 | 0.292 | 0.197 | 0.643 | 0.574 | 0.462 | 0.406 | 0.397
NCI-H3122 | 0.2 | 0.192 | 0.193 | 0.19 | 0.188 | 1.03 | 0.985 | 0.964 | 1.02 | 1.03 | 1.26 | 0.869 | 0.939 | 0.955 | 0.946 | 1.13 | 1.03 | 1.03 | 0.981 | 0.993
PC-14 | 0.134 | 0.131 | 0.129 | 0.0897 | 0.104 | 0.927 | 0.907 | 0.924 | 0.819 | 0.725 | 1.28 | 0.745 | 0.723 | 0.816 | 0.427 | 0.476 | 0.531 | 0.367 | 0.386 | 0.213
EPLC-272H | 0.296 | 0.306 | 0.388 | 0.475 | 0.289 | 1.34 | 1.24 | 1.28 |  | 1.13 | 0.285 | 0.264 | 0.25 | 0.314 | 0.251 | 0.352 | 0.324 | 0.175 | 0.175 | 0.176
A-427 | 0.958 | 0.99 | 0.998 | 1.04 | 0.916 | 1.08 | 1.11 | 1.06 |  | 1.12 | 0.547 | 0.525 | 0.538 | 0.414 | 0.283 | 0.756 | 0.766 | 0.885 | 0.705 | 0.662

Reference: the supplement of paper PMC10307832
